Assay results as given in US10597388B2, “Pyridazinone herbicides” (FMC CORPORATION, priority 2014, dated 2020).

Assays:
Experiment in all cases: Test C greenhouse herbicide test, pre- and postemergence
Assay type in all cases: in vivo
[1] = tested on: johnsongrass (Sorghum halepense)
Method in brief: (§1)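 Preemergence: seeds sown in a loam soil–sand blend and sprayed with test chemicals in a non-phytotoxic solvent mixture containing surfactant. Postemergence: plants grown in peat-based medium and treated at 2 to 18 cm (1- to 4-leaf stage). After 13 to 15 d in a greenhouse, injury was visually rated 0–100 against controls.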

[2] = tested on: ragweed (common ragweed, Ambrosia elatior)
Method in brief: as §1

[3] = tested on: galium (catchweed bedstraw, Galium aparine)
Method in brief: as §1

[4] = tested on: waterhemp (common waterhemp, Amaranthus rudis)
Method in brief: as §1

[5] = tested on: lambsquarters (Chenopodium album)
Method in brief: as §1

[6] = tested on: crabgrass, large (large crabgrass, Digitaria sanguinalis)
Method in brief: as §1

[7] = tested on: nutsedge, yellow (yellow nutsedge, Cyperus esculentus)
Method in brief: as §1

[8] = tested on: wheat (winter wheat, Triticum aestivum)
Method in brief: as §1

[9] = tested on: barnyardgrass (Echinochloa crus-galli)
Method in brief: as §1

[10] = tested on: foxtail, giant (giant foxtail, Setaria faberii)
Method in brief: as §1

[11] = tested on: oilseed rape (Brassica napus)
Method in brief: as §1

soybean (Glycine max) = tested on: soybean (Glycine max)
Method in brief: as §1

[12] = Postemergence, 31 g ai/ha, scale 0 to 100 (0 no effect, 100 complete control)
[13] = Postemergence, 62 g ai/ha, 0 to 100 scale (0 no effect, 100 complete control)
[14] = Postemergence, 250 g ai/ha, scale 0 to 100, 0 no effect, 100 complete control, 13 to 15 d
[15] = Preemergence, 31 g ai/ha, scale 0 to 100, 0 is no effect, 100 is complete control
[16] = Preemergence, 62 g ai/ha, scale 0 to 100, 0 is no effect, 100 is complete control
[17] = Preemergence, 125 g ai/ha, scale 0 to 100, 0 is no effect, 100 is complete control
[18] = Preemergence, 250 g ai/ha, scale 0 to 100, 0 no effect, 100 complete control
[19] = postemergence, 125 g ai/ha, scale 0 to 100, 0 no effect, 100 complete control
[20] = Postemergence, 125 g ai/ha, scale 0 to 100, 0 is no effect, 100 is complete control

COC(=O)Oc1c(OC)nn(C)c(=O)c1-c1c(C)ccc2ccccc12 [Compound 136]
Plant response rating, Johnsongrass [1, 12]: 5
Johnsongrass plant response rating [1, 13]: 5
Plant response rating, Johnsongrass [1, 14]: 5
Plant response rating, Johnsongrass [1, 15]: 5
Plant response rating, Johnsongrass [1, 16]: 5
Plant response rating, Johnsongrass [1, 17]: 20
Johnsongrass plant response rating [1, 18]: 10
Johnsongrass plant response rating [1, 19]: 5
Plant response rating, Ragweed [2, 12]: 0
Ragweed plant response rating [2, 13]: 0
Plant response rating, Ragweed [2, 14]: 5
Plant response rating, Ragweed [2, 15]: 95
Plant response rating, Ragweed [2, 16]: 98
Plant response rating, Ragweed [2, 17]: 100
Ragweed plant response rating [2, 18]: 100
Ragweed plant response rating [2, 19]: 0
Plant response rating, Galium [3, 12]: 90
Galium plant response rating [3, 13]: 90
Plant response rating, Galium [3, 14]: 95
Plant response rating, Galium [3, 15]: 90
Plant response rating, Galium [3, 16]: 98
Plant response rating, Galium [3, 17]: 100
Galium plant response rating [3, 18]: 100
Galium plant response rating [3, 19]: 90
Plant response rating, Waterhemp [4, 12]: 80
Waterhemp plant response rating [4, 13]: 80
Plant response rating, Waterhemp [4, 14]: 100
Plant response rating, Waterhemp [4, 15]: 98
Plant response rating, Waterhemp [4, 16]: 100
Plant response rating, Waterhemp [4, 17]: 98
Waterhemp plant response rating [4, 18]: 100
Waterhemp plant response rating [4, 19]: 95
Plant response rating, Lambsquarters [5, 12]: 90
Lambsquarters plant response rating [5, 13]: 90
Plant response rating, Lambsquarters [5, 14]: 100
Plant response rating, Lambsquarters [5, 15]: 95
Plant response rating, Lambsquarters [5, 16]: 90
Plant response rating, Lambsquarters [5, 17]: 100
Lambsquarters plant response rating [5, 18]: 100
Lambsquarters plant response rating [5, 19]: 95
Plant response rating, Crabgrass, Large [6, 12]: 10
Crabgrass, Large plant response rating [6, 13]: 20
Plant response rating, Crabgrass, Large [6, 14]: 35
Plant response rating, Crabgrass, Large [6, 15]: 0
Plant response rating, Crabgrass, Large [6, 16]: 5
Plant response rating, Crabgrass, Large [6, 17]: 60
Crabgrass, Large plant response rating [6, 18]: 95
Crabgrass, Large plant response rating [6, 19]: 25
Plant response rating, Nutsedge, Yellow [7, 12]: 15
Nutsedge, Yellow plant response rating [7, 13]: 55
Plant response rating, Nutsedge, Yellow [7, 14]: 85
Plant response rating, Nutsedge, Yellow [7, 15]: 5
Plant response rating, Nutsedge, Yellow [7, 16]: 35
Plant response rating, Nutsedge, Yellow [7, 17]: 70
Nutsedge, Yellow plant response rating [7, 18]: 80
Nutsedge, Yellow plant response rating [7, 19]: 75
Plant response rating, Wheat [8, 12]: 35
Wheat plant response rating [8, 13]: 45
Plant response rating, Wheat [8, 14]: 90
Plant response rating, Wheat [8, 15]: 0
Plant response rating, Wheat [8, 16]: 10
Plant response rating, Wheat [8, 17]: 45
Wheat plant response rating [8, 18]: 45
Wheat plant response rating [8, 19]: 45
Plant response rating, Barnyardgrass [9, 12]: 15
Barnyardgrass plant response rating [9, 13]: 25
Plant response rating, Barnyardgrass [9, 20]: 35
Plant response rating, Barnyardgrass [9, 14]: 40
Plant response rating, Barnyardgrass [9, 15]: 25
Plant response rating, Barnyardgrass [9, 16]: 50
Plant response rating, Barnyardgrass [9, 17]: 90
Barnyardgrass plant response rating [9, 18]: 95
Plant response rating, Foxtail, Giant [10, 12]: 35
Foxtail, Giant plant response rating [10, 13]: 45
Plant response rating, Foxtail, Giant [10, 14]: 90
Plant response rating, Foxtail, Giant [10, 15]: 75
Plant response rating, Foxtail, Giant [10, 16]: 85
Plant response rating, Foxtail, Giant [10, 17]: 100
Foxtail, Giant plant response rating [10, 18]: 98
Foxtail, Giant plant response rating [10, 19]: 70
Plant response rating, Oilseed Rape [11, 12]: 95
Oilseed Rape plant response rating [11, 13]: 98
Plant response rating, Oilseed Rape [11, 14]: 98
Plant response rating, Oilseed Rape [11, 15]: 10
Plant response rating, Oilseed Rape [11, 16]: 30
Plant response rating, Oilseed Rape [11, 17]: 90
Oilseed Rape plant response rating [11, 18]: 100
Oilseed Rape plant response rating [11, 19]: 98
Plant response rating, Soybean (soybean (Glycine max); [12]): 5
Soybean plant response rating (soybean (Glycine max); [13]): 10
Plant response rating, Soybean (soybean (Glycine max); [14]): 15
Plant response rating, Soybean (soybean (Glycine max); [15]): 10
Plant response rating, Soybean (soybean (Glycine max); [16]): 10
Plant response rating, Soybean (soybean (Glycine max); [17]): 10
Soybean plant response rating (soybean (Glycine max); [18]): 20
Soybean plant response rating (soybean (Glycine max); [19]): 10

Cc1nn(C)c(=O)c(-c2ccc(Cl)c3ccccc23)c1O [Compound 139]
Plant response rating, Johnsongrass [1, 12]: 5
Johnsongrass plant response rating [1, 13]: 5
Plant response rating, Johnsongrass [1, 14]: 25
Plant response rating, Johnsongrass [1, 15]: 5
Plant response rating, Johnsongrass [1, 16]: 35
Plant response rating, Johnsongrass [1, 17]: 35
Johnsongrass plant response rating [1, 18]: 25
Johnsongrass plant response rating [1, 19]: 15
Plant response rating, Ragweed [2, 12]: 0
Ragweed plant response rating [2, 13]: 0
Plant response rating, Ragweed [2, 14]: 0
Plant response rating, Ragweed [2, 15]: 75
Plant response rating, Ragweed [2, 16]: 90
Plant response rating, Ragweed [2, 17]: 95
Ragweed plant response rating [2, 18]: 100
Ragweed plant response rating [2, 19]: 0
Plant response rating, Galium [3, 12]: 95
Galium plant response rating [3, 13]: 95
Plant response rating, Galium [3, 14]: 100
Plant response rating, Galium [3, 15]: 90
Plant response rating, Galium [3, 16]: 90
Plant response rating, Galium [3, 17]: 100
Galium plant response rating [3, 18]: 100
Galium plant response rating [3, 19]: 100
Plant response rating, Waterhemp [4, 12]: 98
Waterhemp plant response rating [4, 13]: 100
Plant response rating, Waterhemp [4, 14]: 100
Plant response rating, Waterhemp [4, 15]: 100
Plant response rating, Waterhemp [4, 16]: 100
Plant response rating, Waterhemp [4, 17]: 100
Waterhemp plant response rating [4, 18]: 100
Waterhemp plant response rating [4, 19]: 100
Plant response rating, Lambsquarters [5, 12]: 98
Lambsquarters plant response rating [5, 13]: 95
Plant response rating, Lambsquarters [5, 14]: 100
Plant response rating, Lambsquarters [5, 15]: 100
Plant response rating, Lambsquarters [5, 16]: 90
Plant response rating, Lambsquarters [5, 17]: 95
Lambsquarters plant response rating [5, 18]: 98
Lambsquarters plant response rating [5, 19]: 100
Plant response rating, Crabgrass, Large [6, 12]: 20
Crabgrass, Large plant response rating [6, 13]: 10
Plant response rating, Crabgrass, Large [6, 14]: 40
Plant response rating, Crabgrass, Large [6, 15]: 5
Plant response rating, Crabgrass, Large [6, 16]: 30
Plant response rating, Crabgrass, Large [6, 17]: 20
Crabgrass, Large plant response rating [6, 18]: 50
Crabgrass, Large plant response rating [6, 19]: 30
Plant response rating, Nutsedge, Yellow [7, 12]: 55
Nutsedge, Yellow plant response rating [7, 13]: 75
Plant response rating, Nutsedge, Yellow [7, 14]: 85
Plant response rating, Nutsedge, Yellow [7, 15]: 65
Plant response rating, Nutsedge, Yellow [7, 16]: 60
Plant response rating, Nutsedge, Yellow [7, 17]: 85
Nutsedge, Yellow plant response rating [7, 18]: 90
Nutsedge, Yellow plant response rating [7, 19]: 70
Plant response rating, Wheat [8, 12]: 45
Wheat plant response rating [8, 13]: 55
Plant response rating, Wheat [8, 14]: 90
Plant response rating, Wheat [8, 15]: 0
Plant response rating, Wheat [8, 16]: 10
Plant response rating, Wheat [8, 17]: 15
Wheat plant response rating [8, 18]: 10
Wheat plant response rating [8, 19]: 60
Plant response rating, Barnyardgrass [9, 12]: 25
Barnyardgrass plant response rating [9, 13]: 20
Plant response rating, Barnyardgrass [9, 20]: 40
Plant response rating, Barnyardgrass [9, 14]: 60
Plant response rating, Barnyardgrass [9, 15]: 20
Plant response rating, Barnyardgrass [9, 16]: 55
Plant response rating, Barnyardgrass [9, 17]: 75
Barnyardgrass plant response rating [9, 18]: 95
Plant response rating, Foxtail, Giant [10, 12]: 20
Foxtail, Giant plant response rating [10, 13]: 30
Plant response rating, Foxtail, Giant [10, 14]: 60
Plant response rating, Foxtail, Giant [10, 15]: 35
Plant response rating, Foxtail, Giant [10, 16]: 65
Plant response rating, Foxtail, Giant [10, 17]: 85
Foxtail, Giant plant response rating [10, 18]: 95
Foxtail, Giant plant response rating [10, 19]: 30
Plant response rating, Oilseed Rape [11, 12]: 95
Oilseed Rape plant response rating [11, 13]: 95
Plant response rating, Oilseed Rape [11, 14]: 95
Plant response rating, Oilseed Rape [11, 15]: 20
Plant response rating, Oilseed Rape [11, 16]: 98
Plant response rating, Oilseed Rape [11, 17]: 98
Oilseed Rape plant response rating [11, 18]: 100
Oilseed Rape plant response rating [11, 19]: 98
Plant response rating, Soybean (soybean (Glycine max); [12]): 45
Soybean plant response rating (soybean (Glycine max); [13]): 55
Plant response rating, Soybean (soybean (Glycine max); [14]): 60
Plant response rating, Soybean (soybean (Glycine max); [15]): 25
Plant response rating, Soybean (soybean (Glycine max); [16]): 35
Plant response rating, Soybean (soybean (Glycine max); [17]): 60
Soybean plant response rating (soybean (Glycine max); [18]): 80
Soybean plant response rating (soybean (Glycine max); [19]): 65
